The text below walks through data of PubChem BioAssay (NCI).

Holding throughout (test): NCI anticancer screen, dose series, 48 h
For assay [1], the system named is M14 melanoma.
The subject of assay [2] is COLO 205 colon.
Assay [3] deals with OVCAR-3 ovarian.
Assay [4] concerns CCRF-CEM leukemia.
The test system of assay [5] is SN12C renal.
Assay [6] has as its system ACHN renal.
In assay [7] the test system is MALME-3M melanoma.
For assay [8], the system named is OVCAR-8 ovarian.
The test system of assay [9] is HOP-92 NSCLC.
For assay [10], the system named is EKVX NSCLC.

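Tested at 5 concentrations; 48 h exposure; 96-well plates; endpoints linearly interpolated, else capped at highest concentration. GI50 marks 50% less growth. TGI denotes the concentration required for complete inhibition of growth.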 Where a SMILES comes first, the peptide text is derived from it. Some results are limits rather than exact numbers.

In the case of `C=CC1(NS(=O)(=O)c2ccc(C)cc2)CCC(C(C)(C)C)CC1` (configuration not stated), the TGI in assay [1], in [2], in assay [3], in assay [4], in [5] and in [6] was more than 100 µM throughout. For the same compound, the TGI in [7] and in assay [8] was more than 100 µM each time.
Regarding `C[C@]1(Cn2ccnn2)C(C(=O)O)N2C(=O)CC2S1(=O)=O` (some centres not stated), the GI50 in [1], in assay [2], in assay [3], in [5], in assay [6] and in assay [9] was more than 100 µM throughout. The GI50 in assay [7] is more than 100 µM. Moreover, the TGI in [1], in [2], in assay [3], in assay [5], in [6] and in assay [9] was more than 100 µM each time. In assay [7], the TGI was more than 100 µM.
On to `COC(=O)C1C=NNC1C(=O)OC` (configuration not stated), for which the TGI in assay [1], in [2], in assay [3], in assay [4], in [5] and in [10] was more than 100 µM in each case. The TGI in assay [6], in assay [7] and in assay [8] was more than 100 µM throughout.
Turning to `Cc1cccc(N2C(=O)C(=O)C(c3nc4ccccc4s3)/C(=N/NC(=S)NN)C2=O)c1C` (configuration not stated), the TGI in [1], in assay [2], in assay [3], in assay [5], in assay [10] and in assay [6] was more than 100 µM throughout. Also, the TGI in assay [9], in [7] and in assay [8] was more than 100 µM throughout.
`CC(C)CC(Nc1c(O)ccc2ccccc12)C(=O)O` (configuration not stated): the TGI was more than 100 µM in [1]; more than 100 µM in [2]; 62.1 µM in assay [3]; more than 100 µM in assay [4]; more than 100 µM in [5]; 58.3 µM in assay [10]. For the same compound, the TGI stood at 76 µM in [6] and 39.2 µM in assay [7].
Take `CCCNC(=O)c1ccc(Cl)cc1Cl`: the GI50 in [1], in assay [2], in assay [3], in assay [5], in assay [10] and in [6] was more than 100 µM in each case. Also, the GI50 in [9], in assay [7] and in assay [8] was more than 100 µM throughout. Moreover, the TGI in [1], in assay [2], in assay [3], in [5], in assay [10] and in assay [6] was more than 100 µM in each case. Further, the TGI in [9], in [7] and in assay [8] was more than 100 µM in each case.
In the case of `Cc1cc(N2CCCC2)nc(NCc2cc(Nc3ccnc4cc(Cl)ccc34)ccc2F)n1`, the GI50 is 1.37 µM in assay [1]; 0.278 µM in [2]; 1.57 µM in [3]; 1.53 µM in [6]; 1.19 µM in assay [9]; 1.69 µM in [8]. In addition, the TGI was determined as 2.85 µM in [1]; 1.43 µM in [2]; 3.06 µM in assay [3]; 3.06 µM in [6]; 2.57 µM in [9]; 3.27 µM in assay [8].
Regarding `Cc1ccc(C2=Nc3c(N)ncnc3NC(c3ccc4c(c3)OCO4)C2)cc1` (configuration not stated), the GI50 in assay [1] was more than 100 µM; in assay [2], 3.47 µM; in [3], 2.75 µM; in assay [5] it was 8.61 µM; in assay [10], 16.2 µM; in [6], 7.74 µM. Also, the GI50 in [7] is 3.01 µM; in assay [8], 13.5 µM. Also, the TGI in assay [1] was more than 100 µM; in assay [2] it was 21.7 µM; in assay [3], 6.11 µM; in assay [5], more than 100 µM; in assay [10] it was more than 100 µM; in [6] it was 36.7 µM. The figures for the TGI in [7] and in assay [8] were 26.8 µM and more than 100 µM, respectively.
As to `Cc1ccc(NC(=S)SCCC(=O)O)cc1`, the TGI in assay [1], in assay [2], in assay [3], in assay [4], in assay [5] and in assay [10] was more than 100 µM in each case. The TGI in assay [6] and in assay [8] was more than 100 µM in each case.
As to `C/C=C/[C@H]1O[C@@H]2C(=C[C@H]1O)C(=O)O[C@H]2C`, the GI50 in assay [1] is 14.7 µM; in [2], 4.02 µM; in assay [3] it was 18 µM; in assay [5] it was 16.6 µM; in [10], 13.4 µM; in assay [6], 7.71 µM. In addition, the GI50 in [9] is 1.55 µM; in assay [7], 7.59 µM; in [8] it was 24.8 µM. Also, the TGI is 30.6 µM in [1]; more than 32.1 µM in [2]; 39.2 µM in assay [3]; 33.6 µM in assay [5]; 30.8 µM in assay [10]; 22.9 µM in assay [6]. Further, the results for the TGI in [9], in assay [7] and in assay [8] were 22.1 µM, 24.2 µM and more than 56.8 µM, respectively.
`CCC(C)C1NC(=O)C2CCCN2C(=O)CNC(=O)C(C)NC(=O)C(Cc2ccccc2)NC(=O)C(C(C)C)NC1=O` (configuration not stated) (cyclo(GPIVFA); configuration not given here): the TGI in assay [1], in assay [2], in assay [3], in [5], in assay [10] and in assay [6] was more than 100 µM each time. For the same compound, the TGI in [9], in assay [7] and in assay [8] was more than 100 µM throughout.
Turning to `CCOC(=O)[C@H]1Nc2ccc([N+](=O)[O-])cc2C2c3ccccc3CC21` (some centres not stated), the TGI was 34.3 µM in [1]; more than 100 µM in assay [2]; 23.1 µM in [3]; 43.8 µM in [4]; 43.2 µM in assay [5]; 72.3 µM in assay [6]. Further, the values for the TGI in assay [7] and in assay [8] were 68 µM and 56.1 µM, respectively.
